Data on 6 compounds can be found in US20040192594A1 (priority 2002, published 2004).

In one data set the target is Torpedo maramorta AchR (Torpedo marmorata, UniProt P02711). On the set-up: Relative Affinity: reference not given here. The following applies: cited from earlier work.
Data set [1] relates to mice. The note with it: mouse, in vivo, sc.
Data set [2] concerns cell lines in tissue culture.
Data set [3] concerns mice. The following applies: mouse, in vivo.

Where two headings read alike, the source gives them in different places.

In the case of `C[N+](C)(C)CCOC(N)=O.[Cl-]` [Carbamylcholinechloride], at Torpedo maramorta AchR, the concentration for half-maximal inhibition (IC50) (in general, the point on the concentration scale where inhibition reaches its midpoint) was 2800 µM and the “Relative Affinity” value is 0.09.

In the case of `C[N+](C)(C)CCOC(=O)CCCCCCC(=O)OCC[N+](C)(C)C.[I-].[I-]` [Suderyldicholine], at Torpedo maramorta AchR, the “Relative Affinity” value is 104.0. In addition, the IC50 at Torpedo maramorta AchR (read-out: IC50) was 2.5 µM.

For the compound alpha Bungarotoxin, the “Relative Affinity” value at Torpedo maramorta AchR was 30,952.0. Besides, the IC50 on Torpedo maramorta AchR (read-out: IC50) is 0.0084 µM.

In the case of `COc1cc2c3cc1Oc1cc(ccc1O)C[C@@H]1c4c(cc(OC)c(O)c4Oc4ccc(cc4)C[C@@H]3N(C)CC2)CC[N+]1(C)C` [d-Tubocurarine], the “Relative Affinity” value at Torpedo maramorta AchR was 76.5. Further, the IC50 at Torpedo maramorta AchR (read-out: IC50) was 3.4 µM.

alpha cobratoxin: the “Time to death (average)” value in the data set on mice [1] was 20.5 min. The “Toxicity to cell lines” value in data set [2] was “not toxic”. For the same compound, in the data set with Torpedo maramorta AchR, the “Relative Affinity” value was 1,529.0. In addition, the IC50 with Torpedo maramorta AchR (read-out: IC50) was 0.17 µM. For the same compound, the “Paralysis in mice injected with the toxin” value in the data set with mice [3] is listed as “very little or no paralysis”.

Consider `CN1CCCC1c1cccnc1` (stereo not drawn) [Nicotine], for which, at Torpedo maramorta AchR, the IC50 was 1400 µM and the “Relative Affinity” value was 0.19.
